The record followed here is a melting point compilation (Tetko et al.; mined from patent text by program, amines drawn as free bases though some values may be those of a salt).

Each structure is given as a SMILES string.

Molecule `CC(C)(C)C(=O)CC(C(=O)C(C)(C)C)n1cncn1` (configuration not stated) had a melting point of 66 to 69 °C. The result for `Brc1ccc(Cc2cc3ccccc3[nH]2)cc1` reads 136 °C; that for `CC1(C)CCc2c(N3CCSCC3)nc3sc4c(NCc5ccccn5)ncnc4c3c2C1`, 225 to 226 °C; that for `COc1ccc(/C=C/c2ccc3c(=O)n(-c4ccccn4)ncc3c2)cc1`, 213 to 214 °C.

The molecule `C#CCOc1c(OC)cc(/C=C/C(=O)/C=C/c2cc(OC)c(OC)c(OC)c2)cc1OC` had a melting point of 118 to 120 °C.

Consider `Nc1ccc(C(c2ccccc2F)n2ccnc2)cc1[N+](=O)[O-]` (configuration not stated), for which the melting point is 176 °C. The same measure for `Cc1ccnc(-n2ccnc2S(=O)Cc2ccccc2N(C)C)c1` (configuration not stated): 127 to 129 °C; for `CCCCCCCCOc1cc(OC)ccc1C=O`: 37 to 39 °C. The same measure for `Cc1nn(C)c2nc(N)c(-c3cccc(Cl)c3)nc12`: 224 to 226 °C. `Cc1nc2c(O)cccc2c(=O)n1C1CCC(=O)NC1=O` (configuration not stated) returned a melting point of 266 to 268 °C.

With `Cn1ncnc1/C=C/c1ccccc1`, the melting point was in the range of 67 to 70 °C. Turning to `COC(=S)c1cnccc1Cc1ccccc1`, the melting point is 98 to 99 °C. The result for `CCN(CC)CCNC(=O)c1cc(Cl)c(N)cc1OCCCN` reads 119 to 121 °C. The result for `CCOC(=O)C1=C(N)N=C(OCC)C(C(=O)OCC)C1c1ccco1` (configuration not stated) reads 110 °C; that for `CC1(C(=O)O)CCCc2cc(C3CCCCC3)ccc21` (configuration not stated), 128 to 129 °C; that for `CNCC1CN(c2ccc3ccccc3c2)C(=O)O1` (configuration not stated), 76.5 to 78 °C. `CC1(C)CC(=O)C2=C(C1)NC1=C(C(=O)CC(C)(C)C1)C2c1c(F)cc(F)cc1F` returned a melting point greater than 300 °C. `CC1(C)Oc2ccc(S(=O)(=O)C(F)(F)F)cc2C(N2Cc3cccc([N+](=O)[O-])c3C2=O)C1O` (configuration not stated): the melting point was in the range of 283 to 284 °C. The same measure for `CC(C)CC(=O)c1ccc(Cl)cc1`: 39 to 40 °C; for `COc1ccc(-c2cc3nc(N4CCC4)c4ccccc4c3nn2)cc1`: 196 to 198 °C. The same measure for `O=P(O)(O)C1CCCN1` (configuration not stated): 275 to 280 °C; for `CCOC(=O)c1oc2ccc(CSC)c(O)c2c1C`: 101 °C; for `O=C(O)COc1ccc(OCc2ccccc2)cc1OCc1ccccc1`: 72 °C.

Regarding `CSC1NC(=O)N(C(C)C)C(=O)N1N=C(C)C` (configuration not stated), the melting point lay within 110 to 112 °C. The same measure for `Cc1c[nH]c2ccc(C#N)cc12`: 110 to 112 °C; for `CCCCCCCCc1ccc(OC(=O)c2ccc([C@H]3CC[C@H](CCC)C3)cc2)cc1` (relative stereo): 36 °C. As to `Oc1ccc2cc(-c3nc4cc(O)ccc4o3)ccc2c1`, the melting point fell in the range of 288 to 290 °C.

For `COC(=O)c1ccc(C=CC(=O)c2ccc3c(c2)C(C)(C)CCC3(C)C)cc1`, the melting point fell in the range of 89 to 91 °C. The same measure for `O=C(Nc1ccc(Oc2ccnc(N3CCC3)n2)c2ccccc12)c1cc(F)cc(N2CCOCC2)c1`: 196 to 197 °C. In turn, `CC(C)(C)OC(=O)C1CC(Cc2ccccc2)C(=O)N1C(=O)OC(C)(C)C` (configuration not stated) came in with a melting point of 125 °C. The same measure for `CCOC(=O)c1c(CN(CC)CC)nc2sc3cnccc3c2c1-c1ccc(O)c(OC)c1`: 179 to 181 °C; for `CN1CCC(Nc2ccccc2OCc2ccccc2)CC1`: 90 to 95 °C; for `OCc1nc2ccc(OC(F)(F)F)cc2[nH]1`: 192 to 194 °C. The same measure for `O=C1C(c2cccc(C(F)(F)F)c2Cl)=NN(CCCCC(F)(F)F)C2C=C(Cl)C=CC12` (configuration not stated): 137 to 138 °C; for `CCNC(=O)CC1CN=C(c2cc3cc(Oc4ccc(S(C)(=O)=O)nc4)cc(OC)c3[nH]2)S1` (configuration not stated): 236 to 237 °C. Take `CCCCN1C(N)=NS(=O)(=O)NC1Oc1cccc(C)c1` (configuration not stated): the melting point fell in the range of 217 to 219 °C. The same measure for `S=C1Nc2ccccc2Cc2nccn21`: 182 to 183 °C. The same measure for `N#Cc1ccc(-c2cc(C#N)cc(Cn3cncn3)c2)cc1`: 154 to 155 °C; for `CN1C(=O)CC[C@]2(C)c3ccc(CC(=O)Nc4ccccc4)cc3CC[C@@H]12`: 192 to 195 °C. The result for `Cc1cc2cc(Nc3ncnc4cc(-c5ccccc5)sc34)ccc2[nH]1` reads 218 to 220 °C; that for `CCOC(=O)Oc1ccc(C=CC(=O)NC2CCCNC(=O)C2)cc1` (configuration not stated), 209 to 210 °C; that for `CC(C)(C)CCN[C@@H](CC(=O)O)C(=O)O`, 184 to 186 °C. As for `COc1ccc2[nH]cc(CCNC=O)c2c1Cl`, the melting point was in the range of 120 to 121 °C. The same measure for `COc1ccc(C=C2C=CC(=O)O2)cc1`: 118 to 120 °C. The result for `c1ccc(CSc2nnn[nH]2)cc1` reads 98 to 100 °C; that for `NC(=O)c1nc(-c2ccc(Oc3ccc(F)cc3)c(F)c2)cs1`, 183 °C; that for `COc1ccc(CCCCCCCC(=O)O)cc1`, 42 to 43 °C.

In the case of `OCCCc1oc(-n2cccn2)nc1-c1ccc(Cl)cc1`, the melting point was 75 to 76 °C. Molecule `CCc1cc2c(C3=NNC(=O)CC3C)cc(Cl)cn2n1` (configuration not stated) showed a melting point of 172 to 174 °C. Molecule `O=C(O)C1Cc2ccccc2N1C(=O)CCS` (configuration not stated) yielded a melting point of 140 to 142 °C. The result for `COc1cc(C)c2nc3cccc(OC)c3nc2c1` reads 201 to 202 °C. The same measure for `COc1nc(C)cnc1NS(=O)(=O)c1cccnc1-c1ccc(N2CCOCC2)cc1`: 197 to 198 °C.

`O=C(O)c1cncn1C(c1ccccc1)c1ccccc1`: the melting point is 216 °C. Molecule `COc1ccc(-c2ccc(C(C)=O)cc2[N+](=O)[O-])c(OC)c1` came in with a melting point of 129 to 131 °C.

Take `Cc1c(-c2cccc(C(F)(F)F)c2)oc2c(-c3ccc(F)cc3)c(-c3ccc(S(C)(=O)=O)cc3)nn12`: the melting point fell in the range of 194 to 195 °C. In turn, `O=C(O)COc1ccc2c(-c3ccoc3)noc2c1Cl` registered a melting point of 225 to 227 °C. The same measure for `OCCCc1ccccc1N(Cc1ccccc1)Cc1ccccc1`: 71.5 to 73 °C. The result for `CC(C)(C)c1ccc2c(c1)C=C(C(=O)O)CC2` reads 185 to 186 °C; that for `Cc1cc(NC(=O)c2cnoc2C2CC2)ccc1Br`, 133 to 135 °C; that for `Oc1ccc(Oc2cc3ccc(Cl)cc3cn2)cc1`, 190 °C. The same measure for `O=C(CCCSc1nc[nH]n1)NC/C=C\COc1cc(CN2CCCCC2)ccn1`: 87 to 89 °C; for `COc1cc(OC(C)(C)C(=O)O)c(-c2cccs2)cc1C=CC(=O)c1ccc(C(=O)O)cc1`: 135 to 137 °C. As for `COCC#Cc1ncn2c1CN(C)C(=O)c1ccccc1-2`, the melting point fell in the range of 114 to 115 °C. The result for `O=COC(CCl)(CC(Cl)(Cl)Cl)c1cc(Cl)cc(Cl)c1` (configuration not stated) reads 115 to 117 °C; that for `CCOC(=O)C1=C(C(F)(F)F)NC(N)(C(F)(F)F)C(C(=O)OCC)S1` (configuration not stated), 87.5 to 89 °C; that for `O=c1nc(N2CCN(c3cccc(C(F)(F)F)c3)CC2)sc2c([N+](=O)[O-])cc(C(F)(F)F)cc12`, 201 to 203 °C. The result for `OCCON=Cc1cnc2ccccc2c1` reads 129 °C; that for `CN(C(CCn1c(=O)cc(Cl)[nH]c1=O)C(=O)NO)S(=O)(=O)c1ccc(Oc2cccc(Cl)c2)cc1` (configuration not stated), 168 to 170 °C. The result for `COC(=O)/C=C1\CCc2cc(C(C)(C)C)ccc21` reads 116 to 118 °C; that for `C=C(C)CNc1cccc(-c2ccnc3c(C(=O)c4cccs4)cnn23)c1`, 104 to 106 °C. With `CCCCOc1c(C(OC(N)=O)C(C)(C)C)n(CC(C)(C)C)c(=O)c2ccc(OCC)cc12` (configuration not stated), the melting point was in the range of 138 to 139 °C. Take `Cc1c(F)c(N2CCNCC2)c(F)c2c1c(=O)c(C(=O)O)cn2-c1ccc(F)cc1F`: the melting point was in the range of 240 to 242 °C. The same measure for `CON1C=C2C=C(SC)N=C(Cl)N2N1`: 243 to 244 °C; for `COC(=O)CCCCCNC(=O)/C=C/C=C/c1ccccc1`: 125 to 127 °C; for `Cc1cc2c(cc1Cl)[nH]c1c(C(=O)O)cccc12`: 310 °C. The same measure for `CN1CCN(c2cc(Cl)cc3c2c(=O)n(Cc2ccccc2Br)c(=O)n3Cc2ccccc2)CC1`: 91 to 93 °C. The result for `O=C(O)CN1C(=O)C(NC(=O)[C@@H](S)Cc2ccccc2)CCCc2ccccc21` (some centres not stated) reads 107 to 111 °C; that for `Cc1nc(C[C@H]2OC[C@H](c3ccc(F)cc3)CO2)nc(C(=O)NCC(=O)O)c1O`, 209 °C; that for `CCc1nn(CCOc2ccc(CC3SC(=O)NC3=O)cc2)c(=O)c2ccccc12` (configuration not stated), 174 °C.

Turning to `CC(C)N(Cc1c(-c2ccccc2)sc(N)c1C(=O)c1ccc(Cl)cc1)C(C)C`, the melting point fell in the range of 185 to 187 °C. For `O=c1[nH]c2cc(Cl)ccc2n1CCCO`, the melting point came to 149 °C.

Take `CS(=O)(=O)N1CCCn2c(nc3c(N)nc4cc(Br)ccc4c32)C1`: the melting point was 303 °C. The same measure for `O=C1CCC(c2ccc3[nH]c(-c4cccnc4)cc3c2)=NN1`: 298 to 300 °C; for `CCc1nn(-c2ccc(C(=N)N)cc2)c(=O)n1-c1ccc(CCC(=O)O)cc1`: greater than 250 °C. The molecule `Cc1cc(O)ccc1OCc1ccccc1` yielded a melting point of 70 to 71 °C. `CCCCc1nc2cccc(C(=O)OCC)c2n1Cc1ccc(-c2ccccc2-c2nnn[nH]2)cc1` yielded a melting point of 138 to 139 °C. As to `CCC(C)(O)C(=O)Nc1ccc(S(=O)(=O)c2ccccc2)cc1` (configuration not stated), the melting point lay in the range of 163 to 165 °C. In turn, `O=C(OCc1ccc(F)cc1)c1cccc(C(=O)OCc2ccc(F)cc2)c1` showed a melting point of 78 to 79 °C. The same measure for `O=c1[nH]c(=O)c2cc(C(c3ccccc3)n3cncn3)ccc2[nH]1` (configuration not stated): 281 °C. The result for `COc1cccc(C(O)(Cc2ccncc2)c2cccc(OC)c2)c1` reads 134 to 135 °C; that for `CCOC(=O)CNC(=O)C1(N(C(=O)c2ccc(N)cc2)N2CCCCC2)CCCCC1`, 92 to 96 °C. In turn, `CCOC(=O)c1c(O)c2c(C)csc2n(Cc2ccccc2)c1=O` returned a melting point of 166 °C.
